The test system of assay [1] is 2E9 MAb. The assay can be described thus: Indirect competitive ELISA measuring equilibrium association constant and association/dissociation rates of MAb-hapten complexes. The class given is binding, mouse. Particulars: for KA times higher than KA measured for the 4-OHE2-1-N3Ade adduct: comparator 4-OHE2-1-N3Ade; for KA higher by a factor than that obtained for NAcCys: comparator NAcCys; for Association constant, KA / Association rate, kon / Dissociation rate, koff: in the presence of 2E9 MAb, indirect competitive ELISA; for Association constant, KA: equilibrium; for 1/koff: dissociation time; for KA times smaller than the KA obtained for 4-OHE1-2-NAcCys: comparator 4-OHE1-2-NAcCys. The procedure:
The equilibrium constant and the kinetic off- and on-rates for the analyte and the reporter molecule of interest must be known. The equilibrium association constants (KA) and association (kon)/dissociation (koff) rates for 4-OHE2-2-NAcCys and 4-OHE2-2-NAcCys-SAMSA conjugates are given in Table I, which also provides information on other closely related analytes, such as 4-OHE2, NAcCys, and 4-OHE2-1-N3Ade adduct. All values listed in Table I were determined using an indirect competitive ELISA. The value of KA for 4-OHE2-2-NAcCys-SAMSA was confirmed by an equilibrium dialysis method.
An ELISA was used to measure the association/dissociation rate constants of MAb-hapten (i.e., MAb-4-OHE1-2-NAcCys) and/or association/dissociation rate constants of related analytes. The MAb and suitable hapten(s) were mixed in solution to initiate the equilibrium reaction. At different time intervals, the amount of the free MAb in the reaction mixture was determined by an indirect ELISA. The association rate constants for 4-OHE1-2-NAcCys, 4-OHE1, NAcCys, and 4-OHE1-1-N3Ade were estimated by nonlinear regression against an equation introduced from the derivation of the mass balance of MAb-antigen/related analyte interaction (Zhuang et al., J Biosci. Bioeng. 92, 330-336 (2001); Foote et al., Proc. Natl. Acad. Sci. USA 92, 1254-1256 (1995); Goldbaum et al., J Immunol. 162, 6040-6045 (1999); Northrup et al., Proc. Natl. Acad. Sci. USA 89, 3338-3342 (1992)).
To determine the bound fraction of the antibody by ELISA, 3 rows and 8 columns of the microtiter plate were incubated with sufficient concentration of antigen to saturate the wells. After washing the plate with PBS 3 times, 4 rows of the plate including 3 rows coated with the antigen were blocked with 1% non-fat dried milk, 0.01% Triton-X100 in PBS for 3 hrs. Then the plate was washed with PBS with Triton-X100 (0.01%) 3 times. Equal volumes (160 μL) of the antigen (or related analyte) and PBS were mixed, and the mixture was put into the first well of the row that was blocked but not coated with the antigen (non-coated row).
The average absorbance of this column (Ab) measured in the last step of the ELISA corresponds to the blank. Equal volumes (160 μL) of the antibody solution and PBS were mixed, and the mixture was put into the last (8th) well of the non-coated row. The average absorbance of this column (Ao) corresponds to the total concentration of the antibody. Equal volumes of the antibody solution and antigen (or related analyte) solution were mixed quickly, and the mixture was immediately put into the second well of the non-coated row. At appropriate time intervals (after 10, 20, 23, 26 and 28 min), a new mixture of the antibody and hapten (or related analyte) solution were mixed quickly, immediately put into the wells of the non-coated row from the […]. The average absorbance of these columns (At) corresponds to the concentration of the free antibody at t=30, 20, 10, 7, 4 and 2 min for the […], respectively. Two min after the 7th well was filled with the mixture, using an eight-channel Pipetman, the mixtures on the row were quickly dispensed into the 3 rows that were coated with the antigen (or related analyte, 50 μL each). After 1 min the mixture was discarded and the plate was washed with PBS with Triton-X100 (0.01%) 3 times. The secondary antibody solution (HRP-conjugated) was added to the plate (50 μL), and the plate was incubated at 37° C. for 1 h. After washing with PBS and Triton-X100 (0.01%) 3 times, the substrate was added to the plate (50 μL). After incubation for 10 min at room temperature, the absorbance at 405 nm was measured.
Association constants KA for 4-OHE1 and NAcCys were also determined and are 2.5·10^5 and 2.1·10^6 M^−1, respectively. […] When the time required for the equilibrium reaction between the antigen and the antibody is shorter, one can detect or quantify the hapten faster. […]
(In an ELISA, binding on a coated surface is turned into a signal by an enzyme label.)

Assay [2] relates to 2E9 MAb. The assay can be described thus: Competitive ELISA for 4-OHE1-2-NAcCys: inhibition of 2E9 MAb binding to immobilized antigen. Also noted: species or system mouse. Particulars: for IC50: wells coated with OA-4-OHE1(E2)-2-NAcCys-16a,β-MCC, regression analysis, read-out: I50 (quantity producing 50% inhibition of MAb binding in the ELISA). The procedure: FIG. 5 is a diagram depicting inhibition profiles obtained for 4-OHE1-2-NAcCys (curve 1); NAcCys (curve 2), 4-OHE1(E2) (curve 3), and 4-OHE1-1-N3Ade (curve 4) using the 2E9 MAb in the competitive ELISA assay. Competitor-mediated reduction of MAb binding was expressed as % inhibition vs. untreated MAb and then plotted as a function of log quantity of competitor per well of the ELISA plate.
Wells were coated with OA-40HE1(E2)-2-NAcCys-16a,β-MCC, 500 ng/mL, 50 μL/well overnight, and blocked with 1% non-fat dried milk, 0.01% Triton-X100 in PBS for 2 h at 37° C. Competition curves were generated as described below. MAb and competitor molecules 4-OHE1(E2)-2-NAcCys (1), NAcCys (2), 4-OHE1(E2) (3), and 4-OHE1(E2)-1-N3Ade (4) were added to the wells at the same time and allowed to react with immobilized antigen for one hour before secondary antibody was added. The plates were washed with PBS with Triton-X100 (0.01%). Secondary antibody labeled with horseradish peroxidase (HRP) was used according to manufacturer's (BRL, Inc.) recommendations and incubated at 37° C. for 1 h. Plates were washed again, 2,2′-azino-bis(3-ethylbenzthiazoline-6-sulfonic acid) (ABTS) was added, and the plates were read at 405 nm on a BioRad-EL800 plate reader. The specificity of the 2E9 MAb raised against 4-OHE1(E2)-2-NAcCys was confirmed, and cross-reactivity to a number of related compounds was established.
The results are shown in FIG. 5, where the competitor-mediated reduction of MAb binding is expressed as % inhibition versus untreated MAb and plotted as a function of the concentration of competitor in the wells of the ELISA plate. Inhibition curves were developed for several analytes of interest; the I50's (quantity producing 50% inhibition of MAb binding in the ELISA) of these analytes were determined by regression analysis. […] For example, the I50 of 4-OHE-1-N3Ade (I50=1.5·10^−5M) was about 2700 times higher than the I50 of the 4-OHE1-2-NAcCys (I50=5.6·10^−9M).

The subject of assay [3] is MAb against 4-OHE2-1-N3Ade. Nature of the assay: Association constant of the MAb developed against 4-OHE2-1-N3Ade. The class given is binding.

On to 4-OHE1(E2)-2-NAcCys, for which, in the assay with 2E9 MAb [1] (2E9 MAb), the “KA times higher than KA measured for the 4-OHE2-1-N3Ade adduct” value was “about 2,700” and the “KA higher by a factor than that obtained for NAcCys” value was found to be 100. In the assay with 2E9 MAb [1], the “Association constant, KA” value was found to be 1.8e+08 M⁻¹.

“4-OHE2-2-NAcCys-SAMSA [4-OHE2-NAcCys-SAMSA]” showed a 1/koff with 2E9 MAb [1] (2E9 MAb) of 185 s. For the same compound, in the assay on 2E9 MAb [1], the “Association rate, kon” value stood at 270000 M⁻¹ s⁻¹; the “Dissociation rate, koff” value was 0.0054 s⁻¹; the “Association constant, KA” value amounted to 5e+07 M⁻¹.

For the compound `C[C@]12CC[C@@H]3c4c(-n5cnc(=N)c6[nH]cnc65)cc(O)c(O)c4CC[C@H]3[C@@H]1CCC2=O` [4-OHE1-1-N3Ade], the “I50 times higher than the I50 of 4-OHE1-2-NAcCys” value in the assay with 2E9 MAb [2] (comparator 4-OHE1-2-NAcCys) is reported as “about 2700”. Further, the IC50 on 2E9 MAb [2] came to 15 µM. Further, in the assay with 2E9 MAb [1] (2E9 MAb), the “KA times smaller than the KA obtained for 4-OHE1-2-NAcCys” value (shortened to “KA times smaller than the KA obtained”) stood at 2700. Besides, the “Association constant, KA” value in the assay with 2E9 MAb [1] (listed as 4-OHE1-N3Ade) was 67000 M⁻¹.

As to `CC(=O)NC(CSc1cc2c(c(O)c1O)CCC1C2CCC2(C)C(=O)CCC12)C(=O)O` (stereo not drawn) [4-OHE1-2-NAcCys], at 2E9 MAb [2], the IC50 is 0.0056 µM.

`C[C@]12CC[C@@H]3c4ccc(O)c(O)c4CC[C@H]3[C@@H]1CCC2=O` [4-OHE1]: the “KA times smaller than the KA obtained” value in the assay with 2E9 MAb [1] (2E9 MAb) is on record as “about 720”. Besides, the “Association constant, KA” value in the assay with 2E9 MAb [1] came out at 250000 M⁻¹.

As to `C[C@]12CC[C@@H]3c4c(-n5cnc(=N)c6[nH]cnc65)cc(O)c(O)c4CC[C@H]3[C@@H]1CC[C@@H]2O` [4-OHE2-1-N3Ade], the KA in assay [3] was found to be 2e+08 M⁻¹. The compound further had a 1/koff with 2E9 MAb [1] (2E9 MAb) of 10 s. Further, in the assay with 2E9 MAb [1], the “Association rate, kon” value stood at 6500 M⁻¹ s⁻¹; the “Dissociation rate, koff” value stood at 0.097 s⁻¹; the “Association constant, KA” value came to 67000 M⁻¹.

For `CC(=O)N[C@@H](CSc1cc2c(c(O)c1O)CC[C@@H]1[C@@H]2CC[C@]2(C)[C@@H](O)CC[C@@H]12)C(=O)O` [4-OHE2-NAcCys, 4-OHE2-2-NAcCys], in the assay with 2E9 MAb [1] (2E9 MAb), the “dissociation time 1/koff” value is recorded as around 6.5 min, the “KA times higher than KA measured for the 4-OHE2-1-N3Ade adduct” value is listed as “about 2,700”, the “KA higher by a factor than that obtained for NAcCys” value is 100 and the 1/koff stood at 391 s. Besides, in the assay on 2E9 MAb [1], the “Association rate, kon” value is 460000 M⁻¹ s⁻¹; the “Dissociation rate, koff” value was determined as 0.0026 s⁻¹; the “Association constant, KA” value is 1.8e+08 M⁻¹. Also, the “Association constant, KA” value in the assay with 2E9 MAb [1] (listed as 4-OHE2-2-NAcCys) worked out at 1.8e+08 M⁻¹.

In the assay with 2E9 MAb [1] (2E9 MAb), `C[C@]12CC[C@@H]3c4ccc(O)c(O)c4CC[C@H]3[C@@H]1CC[C@@H]2O` [4-OHE2] returned a 1/koff of 17 s. In addition, in the assay on 2E9 MAb [1], the “Association rate, kon” value was 15000 M⁻¹ s⁻¹; the “Dissociation rate, koff” value is 0.062 s⁻¹; the “Association constant, KA” value worked out at 250000 M⁻¹.

Consider `CC(=O)N[C@@H](CS)C(=O)O` [NAcCys, N-acetylcysteine], for which, in the assay on 2E9 MAb [1] (2E9 MAb), the “KA times smaller than the KA obtained” value is reported as around 86 and the 1/koff was 27 s. Moreover, in the assay on 2E9 MAb [1], the “Association rate, kon” value worked out at 77000 M⁻¹ s⁻¹; the “Dissociation rate, koff” value was determined as 0.037 s⁻¹; the “Association constant, KA” value is 2.1e+06 M⁻¹.

The record behind these values is patent publication US20070148712A1, “Breast cancer and prostate cancer assessment” (Iowa State University Research Foundation, Inc., priority 2005, published 2007).
